Read-outs that look alike come from different tables or passages of the source.
Legend:
[1] = molecular target: Cys242 in human PIK3CA (157-299) (Homo sapiens (Human), UniProt P42336); assay: Covalent modification assay using MALDI-TOF MS; format: biochemical; conditions: 4 h reaction time point; 1 μM protein target, 1:5 protein to compound ratio (compounds 853-1279)
Summary of the method: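 PIK3CA (157-299) at 3.33 μM or 1 μM in 20 mM HEPES, 150 mM NaCl, 2 mM MgCl2, pH 7.3 was incubated with compound (from 10 mM DMSO stocks) in the dark at room temperature for 15 min, 30 min, 2 h or 4 h. Linear-mode MALDI-TOF peak heights gave percent modification.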

pAKT in BT474 cells = assay: Cell-based pAKT HTRF assay in BT474 cells; conditions: BT474 cells, 4 hr incubation, Compounds 1000-1279, read-out: pAKT inhibition IC50 in BT474 cells
Summary of the method: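 Treatment lasts 4 hr in DMEM/10% FBS at 0.25% DMSO over nine 3-fold dilutions from 3 μM. The lysate is then probed by HTRF.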

Sequence of Cys242 in human PIK3CA (157-299) (P42336 157-299): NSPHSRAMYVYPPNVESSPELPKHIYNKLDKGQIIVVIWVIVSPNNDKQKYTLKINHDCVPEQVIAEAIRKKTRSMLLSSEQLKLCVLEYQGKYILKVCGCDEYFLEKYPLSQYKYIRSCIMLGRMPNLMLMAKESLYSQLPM

SMILES	% of modification [1]	IC50 (pAKT in BT474 cells) [nM]	IC50 (pAKT in BT474 cells; Homo sapiens, BT-474) [nM]
C=CC(=O)N1CCn2nc(-c3nc(-c4ccc5c(cnn5C)c4)c4ccsc4c3-c3c(F)cc(F)cc3OCCOC)cc2[C@H]1C [Compound 1131]	D (percent of modification <25%)	> 1000	
C=CC(=O)N1CCn2nc(-c3nc(-c4ccc5c(c4)NC(=O)CN(C)C5)c4ccsc4c3-c3c(F)cc(F)cc3OCCOC)cc2[C@H]1C [Compound 1132, 8-((S)-6-((R)-5-acryloyl-4-methyl-4,5,6,7-tetrahydropyrazolo[1,5-a]pyrazin-2-yl)-7-(2,4-difluoro-6-(2-methoxyethoxy)phenyl)thieno[3,2-c]pyridin-4-yl)-4-methyl-1,3,4,5-tetrahydro-2H-benzo[e][1,4]diazepin-2-one]	A (percent of modification of PIK3CA protein ≥75%)	< 100	
C=CC(=O)N1CCn2nc(-c3nc(-c4ccc5c(c4)CN(C)C(=O)C54CC4)c4ccsc4c3-c3c(F)cc(F)cc3OCCO)cc2[C@H]1C [Compound 1133]	A (percent of modification of PIK3CA protein ≥75%)	< 100	
C=CC(=O)N1CCn2nc(-c3nc(-c4ccc(C5(C(=O)NC)CC5)cc4)c4ccsc4c3-c3c(F)cc(F)cc3OCCOC)cc2[C@H]1C [Compound 1134]	A (percent of modification of PIK3CA protein ≥75%)	< 100	
C=CC(=O)N1CCn2nc(-c3nc(-c4ccc(C5(C(=O)NC)CC5)cc4)c4ccsc4c3-c3c(F)cc(F)cc3OCCO)cc2[C@H]1C [Compound 1135]	A (percent of modification of PIK3CA protein ≥75%)	< 100	
C=CC(=O)N1CCn2nc(-c3nc(-c4ccc5c(c4)CN(C)CC5)c4ccsc4c3-c3c(F)cc(F)cc3OCCO)cc2[C@H]1C [Compound 1136]	A (percent of modification of PIK3CA protein ≥75%)	< 100	
C=CC(=O)N1CCn2nc(-c3nc(-c4ccc5c(c4)CNC(=O)C5)c4ccsc4c3-c3c(F)cc(F)cc3OCC(C)(C)O)cc2C1C (stereo not drawn) [Compound 1139]	A (percent of modification of PIK3CA protein ≥75%)	< 100	
C=CC(=O)N1CCn2nc(-c3nc(-c4cncc(CN(C)C)c4)c4ccsc4c3-c3c(F)cc(F)cc3OCCOC)cc2C1C (stereo not drawn) [Compound 1141]	A (percent of modification of PIK3CA protein ≥75%)	< 100	
C=CC(=O)N1CCn2nc(-c3nc(-c4cccc(C(=O)N5CC(N(C)C)C5)c4)c4ccsc4c3-c3c(F)cc(F)cc3OCCOC)cc2C1C (stereo not drawn) [Compound 1142]	A (percent of modification of PIK3CA protein ≥75%)	< 100	
C=CC(=O)N1CCn2nc(-c3nc(-c4ccc5c(cnn5C)c4F)c4ccsc4c3-c3c(F)cc(F)cc3OCCOC)cc2C1C (stereo not drawn) [Compound 1144]	A (percent of modification of PIK3CA protein ≥75%)	< 100	
C=CC(=O)N1CCn2nc(-c3nc(-c4cnc5c(c4)CN(C)CC5(F)F)c4ccsc4c3-c3c(F)cc(F)cc3OCCOC)cc2[C@H]1C [Compound 1152, 1-((R)-2-((S)-7-(2,4-difluoro-6-(2-methoxyethoxy)phenyl)-4-(8,8-difluoro-6-methyl-5,6,7,8-tetrahydro-1,6-naphthyridin-3-yl)thieno[3,2-c]pyridin-6-yl)-4-methyl-6,7-dihydropyrazolo[1,5-a]pyrazin-5(4H)-yl)prop-2-en-1-one]	A (percent of modification of PIK3CA protein ≥75%)		< 100
C=CC(=O)N1CCn2nc(-c3nc(-c4ccc5c(c4)CCC5N(C)C)c4ccsc4c3-c3c(F)cc(F)cc3OCCOC)cc2C1C (stereo not drawn) [Compound 1155]	A (percent of modification of PIK3CA protein ≥75%)	< 100	
C=CC(=O)N1CCn2nc(-c3nc(-c4ccc5c(cnn5C)c4)c4ccsc4c3-c3c(F)cc(F)cc3OCCO)cc2C1C (stereo not drawn) [Compound 1156]	D (percent of modification <25%)	< 100	
C=CC(=O)N1CCn2nc(-c3nc(-c4ccc(C5(C(=O)NC6CN(C)C6)CC5)cc4)c4ccsc4c3-c3c(F)cc(F)cc3OCCOC)cc2C1C (stereo not drawn) [Compound 1157]	A (percent of modification of PIK3CA protein ≥75%)	100 to 1000	
C=CC(=O)N1CCn2nc(-c3nc(-c4cnc5c(c4)CN(CCCF)CC5)c4ccsc4c3-c3c(F)cc(F)cc3OCCOC)cc2C1C (stereo not drawn) [Compound 1158]	A (percent of modification of PIK3CA protein ≥75%)	< 100	
C=CC(=O)N1CCn2nc(-c3nc(-c4cnc5c(c4)CN(CCO)CC5)c4ccsc4c3-c3c(F)cc(F)cc3OCCOC)cc2[C@H]1C [Compound 1160]	A (percent of modification of PIK3CA protein ≥75%)	< 100	
C=CC(=O)N1CCn2nc(-c3nc(-c4cnc5c(c4)CN(C)CC5(C)C)c4ccsc4c3-c3c(F)cc(F)cc3OCCOC)cc2[C@H]1C [Compound 1161]	A (percent of modification of PIK3CA protein ≥75%)	< 100	

SMILES	% of modification [1]	IC50 (pAKT in BT474 cells) [nM]	IC50 (pAKT in BT474 cells; Homo sapiens, BT-474) [nM]
C=CC(=O)N1CCn2nc(-c3nc(-c4cc5cnn(C)c5cc4F)c4ccsc4c3-c3c(F)cc(F)cc3OCCO)cc2[C@H]1C [Compound 1162]	A (percent of modification of PIK3CA protein ≥75%)	< 100	
C=CC(=O)N1CCn2nc(-c3nc(-c4cnc5c(c4)CN(C)CC54CC4)c4ccsc4c3-c3c(F)cc(F)cc3OCCOC)cc2[C@H]1C [Compound 1163]	A (percent of modification of PIK3CA protein ≥75%)	< 100	
C=CC(=O)N1CCn2nc(-c3nc(-c4cc5cnn(C)c5cc4F)c4ccsc4c3-c3c(F)cc(F)cc3OCCOC)cc2[C@H]1C [Compound 1164]	A (percent of modification of PIK3CA protein ≥75%)	< 100	
C=CC(=O)N1CCn2nc(-c3nc(-c4ccc5c(c4)c(F)nn5C)c4ccsc4c3-c3c(F)cc(F)cc3OCCOC)cc2[C@H]1C [Compound 1165]	A (percent of modification of PIK3CA protein ≥75%)	< 100	
C=CC(=O)N1CCn2nc(-c3nc(-c4ccc5c(cnn5C)c4)c4ccsc4c3-c3c(F)cc(F)cc3OCCO)cc2[C@@H]1C [Compound 1166]	D (percent of modification <25%)	100 to 1000	
C=CC(=O)N1Cc2cc(-c3nc(C45CC(CN(C)C)(C4)C5)c4ccsc4c3-c3c(F)cc(F)cc3OCCOC)nn2C[C@H]1C [Compound 1168, 1-((6R)-2-(7-(2,4-difluoro-6-(2-methoxyethoxy)phenyl)-4-(3-((dimethylamino)methyl)bicyclo[1.1.1]pentan-1-yl)thieno[3,2-c]pyridin-6-yl)-6-methyl-6,7-dihydropyrazolo[1,5-a]pyrazin-5(4H)-yl)prop-2-en-1-one]	B (50%<percent of modification <75%)		100 to 1000
C=CC(=O)N1CCn2nc(-c3nc(-c4ccc5c(c4)CNC5=O)c4c(c3-c3c(F)cc(F)cc3OCCOC)CCC4)cc2[C@H]1C [Compound 1174, 5-((R)-3-((R)-5-acryloyl-4-methyl-4,5,6,7-tetrahydropyrazolo[1,5-a]pyrazin-2-yl)-4-(2,4-difluoro-6-(2-methoxyethoxy)phenyl)-6,7-dihydro-5H-cyclopenta[c]pyridin-1-yl)isoindolin-1-one]	A (percent of modification of PIK3CA protein ≥75%)	< 100	
C=CC(=O)N1CCn2nc(-c3nc(-c4ccc5c(c4)CCN(C)C5(C)C)c4ccsc4c3-c3c(F)cc(F)cc3OCCO)cc2C1C (stereo not drawn) [Compound 1181]	A (percent of modification of PIK3CA protein ≥75%)	< 100	
C=CC(=O)N1CCn2nc(-c3nc(-c4ccc5c(c4)CCC5N(C)C)c4ccsc4c3-c3c(F)cc(F)cc3OCCOC)cc2C1C (stereo not drawn) [Compound 1182]	A (percent of modification of PIK3CA protein ≥75%)	< 100	
C=CC(=O)N1CCn2nc(-c3nc(-c4ccc(C(=O)NCC(F)F)cc4)c4ccsc4c3-c3c(F)cc(F)cc3OCCOC)cc2C1C (stereo not drawn) [Compound 1183]	A (percent of modification of PIK3CA protein ≥75%)	< 100	
C=CC(=O)N1CCc2ccc(-c3nc(-c4cccc(OCCN(C)C)c4)c4ccsc4c3-c3c(F)cc(F)cc3OCCOC)cc2C1 [Compound 1184]	A (percent of modification of PIK3CA protein ≥75%)	100 to 1000	
C=CC(=O)N1CCn2nc(-c3nc(-c4ccc(CC(=O)NC)cc4)c4ccsc4c3-c3c(F)cc(F)cc3OC)cc2C1C (stereo not drawn) [Compound 1188]	A (percent of modification of PIK3CA protein ≥75%)	< 100	
C=CC(=O)N1CCn2nc(-c3nc(-c4ccc(C(=O)N5CC(F)C(F)C5)cc4)c4ccsc4c3-c3c(F)cc(F)cc3OCCOC)cc2C1C (stereo not drawn) [Compound 1189]	A (percent of modification of PIK3CA protein ≥75%)	< 100	
C=CC(=O)N1CCn2nc(-c3nc(-c4ccc(C(=O)NCC5CN(C)C5)cc4)c4ccsc4c3-c3c(F)cc(F)cc3OCCOC)cc2C1C (stereo not drawn) [Compound 1190]	A (percent of modification of PIK3CA protein ≥75%)	100 to 1000	
C=CC(=O)N1CCc2ccc(-c3nc(-c4ccc5c(c4)CNC(=O)C54CC4)c4ccsc4c3-c3c(F)cc(F)cc3OCCOC)cc2C1 [Compound 1191]	A (percent of modification of PIK3CA protein ≥75%)	< 100	
C=CC(=O)N1CCc2ncc(-c3nc(-c4ccc5c(c4)CNC(=O)C54CC4)c4ccsc4c3-c3c(F)cc(F)cc3OCCOC)cc2C1 [Compound 1192]	A (percent of modification of PIK3CA protein ≥75%)	< 100	
